{"source": "patent US8507652B2", "about": "“Pharmaceutical composition, dressing and method for treating skin lesion, intermediate composition and process for preparing said dressing, and use of cerium salt associated with a collagen matrix” (priority 2008, dated 2013)", "origin": "cited, not measured here", "key": {"39 bacteria species": {"test_system": "39 bacteria species", "conditions": "39 bacteria species studied, in vitro"}, "interleucin-6": {"test_system": "interleucin-6", "conditions": "lesions treated with cerium nitrate"}, "TNF-[…]": {"test_system": "TNF-[…]", "conditions": "lesions treated with cerium nitrate"}}, "data": [{"smiles": "O=[N+]([O-])[O-].O=[N+]([O-])[O-].O=[N+]([O-])[O-].[Ce+3]", "note": "[cerium nitrate]", "values": [{"measurement": "concentration inhibiting growth", "setting": "39 bacteria species", "value": "~0.0004", "unit": "M"}, {"measurement": "interleucin-6 level", "setting": "interleucin-6", "value": "increase"}, {"measurement": "TNF-[…] level", "setting": "TNF-[…]", "value": "reduction"}]}]}
